According to ChEMBL document CHEMBL2034926, “Design, synthesis, and biological action of 20R-hydroxyvitamin D3” (J Med Chem, 2012):
Active and inactive are the calls of the source. The rule behind the calls is not given here.

Experiments:
[1] = Antiproliferative activity against NHEK cells incubated for 24 hrs by [3H]thymidine incorporation assay; format: functional, cell-based; settings: Homo sapiens
[2] = tested on: HaCaT; assay: Inhibition of colony formation of human HaCaT cells; format: functional, cell-based
[3] = target: T1, CYP11A1 (cholesterol side-chain cleavage enzyme, mitochondrial) (Bos taurus, UniProt P00189); assay: Drug metabolism assessed as bovine CYP11A1-mediated compound metabolism after 2 mins incubation using compound loaded phospholipid vesicle by reverse phase HPLC; format: ADME; settings: cattle, bovine CYP11A1 with compound-loaded phospholipid vesicles; read-out: Drug metabolism
T1 sequence (P00189 whole entry): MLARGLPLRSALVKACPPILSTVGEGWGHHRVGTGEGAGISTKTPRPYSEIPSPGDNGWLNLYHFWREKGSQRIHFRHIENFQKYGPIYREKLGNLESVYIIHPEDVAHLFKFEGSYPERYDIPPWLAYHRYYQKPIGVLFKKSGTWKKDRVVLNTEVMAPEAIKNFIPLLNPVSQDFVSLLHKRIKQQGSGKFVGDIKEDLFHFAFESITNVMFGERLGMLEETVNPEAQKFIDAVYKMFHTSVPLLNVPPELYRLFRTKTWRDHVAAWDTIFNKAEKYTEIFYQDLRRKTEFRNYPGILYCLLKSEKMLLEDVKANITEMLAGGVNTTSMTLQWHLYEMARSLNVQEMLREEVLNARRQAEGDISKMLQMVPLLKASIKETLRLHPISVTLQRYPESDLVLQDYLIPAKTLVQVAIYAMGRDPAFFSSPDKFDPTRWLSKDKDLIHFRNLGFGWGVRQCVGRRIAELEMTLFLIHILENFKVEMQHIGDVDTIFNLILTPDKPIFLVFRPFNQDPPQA

[4] = Antiproliferative activity against NHEK cells assessed as cell proliferation incubated for 24 hrs by [3H]thymidine incorporation assay relative to untreated control
[5] = tested on: HEK293; assay: Stimulation of cell proliferation of NHEK cells at 0.1 nM incubated for 24 hrs by [3H]thymidine incorporation assay; format: functional, cell-based; settings: Homo sapiens

SMILES	EC50 [1] [nM]	inhibition [2]	metabolised at 2 min [3] [%]	level, % of control [4] [%]	Activity [5]
C=C1CC[C@H](O)C/C1=C/C=C1\CCC[C@@]2(C)[C@H]1CC[C@@H]2[C@@](C)(O)CCCC(C)C	0.728	Active	13	<50	–
C=C1CC[C@H](O)C/C1=C/C=C1\CCC[C@@]2(C)[C@H]1CC[C@@H]2[C@](C)(O)CCCC(C)C	4.09	–	58	<50	Active
C=C1CC[C@H](O)C/C1=C/C=C1\CCC[C@]2(C)[C@@H]([C@H](C)CCCC(C)(C)O)CC[C@@H]12	–	inactive	–	–	–
C=C1/C(=C\C=C2/CCC[C@]3(C)[C@@H]([C@H](C)CCCC(C)(C)O)CC[C@@H]23)C[C@@H](O)C[C@@H]1O	–	Active	–	–	–
